{
  "source": "paper PMC5511861",
  "about": "“DS16570511 is a small-molecule inhibitor of the mitochondrial calcium uniporter” (Cell Death Discovery, 2017)",
  "key": {"MICU1": {"biological_target": "T1, MICU1 (Homo sapiens, UniProt Q9BPX6)", "T1 construct": "expressed in transfected cells; host or cells: HEK293A cells, transient co-transfection with the mitochondria-targeted aequorin vector", "T1 sequence (Q9BPX6 34-476)": "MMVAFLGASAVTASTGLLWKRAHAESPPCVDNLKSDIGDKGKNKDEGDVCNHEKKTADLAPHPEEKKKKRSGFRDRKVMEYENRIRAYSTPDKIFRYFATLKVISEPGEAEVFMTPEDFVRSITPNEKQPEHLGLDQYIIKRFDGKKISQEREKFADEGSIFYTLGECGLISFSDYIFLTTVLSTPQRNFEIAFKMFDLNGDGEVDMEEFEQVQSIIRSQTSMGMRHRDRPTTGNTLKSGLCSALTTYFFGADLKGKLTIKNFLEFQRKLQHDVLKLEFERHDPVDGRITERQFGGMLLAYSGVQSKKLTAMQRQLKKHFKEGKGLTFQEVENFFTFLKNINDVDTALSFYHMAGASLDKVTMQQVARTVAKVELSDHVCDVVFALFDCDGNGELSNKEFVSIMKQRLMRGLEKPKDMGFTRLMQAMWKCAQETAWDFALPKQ", "assay": "MICU1-dependent mitochondrial Ca2+ influx in HEK293A cells overexpressing human MICU1", "format": "cell-based", "conditions": "HEK293A cells overexpressing MICU1, serum-induced", "source_text": "(§1) Next, to investigate the molecular component of the mitochondrial calcium uniporter, MCU-dependent and MICU-dependent Ca^2+ influx were examined. […] The MCU-dependent increment of Ca^2+ influx was blocked by the DS16570511 pretreatment (Figure 5b). We then investigated the effects of the inhibitor on the regulatory subunit MICU1. Previous studies have shown that MICU1 facilitates mitochondrial Ca^2+ uptake through the presence of a high Ca^2+ level.[11],[22]\n(§2) Figure 5 DS16570511 inhibits mitochondrial Ca^2+ influx by MCU or MICU1. (a) Effect of overexpression of MCU or MICU1 on mitochondrial Ca^2+ influx in HEK293A cells. (b) Effect of DS16570511 on MCU-dependent mitochondrial Ca^2+ uptake in HEK293A cells. (c) Effect of DS16570511 on MICU1-dependent mitochondrial Ca^2+ uptake in HEK293A cells. […]\n(§3) In order to evaluate mitochondrial Ca^2+ uptake activity by MCU or MICU1, HEK293A cells were transiently transfected with the mitochondria-targeted aequorin vector and pcDNA3.1 vector containing human Mcu (NCBI Reference Sequence: NM_138357.2) or Micu1 (NM_001195518.1). One day after the transfection, the luminescence levels were measured as described above. MCU- or MICU1-dependent activity was calculated by subtracting the luminescence level of cells transfected with empty vector from that of cells expressing MCU or MICU1, respectively."}, "MCU": {"biological_target": "T2, MCU (Homo sapiens, UniProt Q8NE86)", "T2 construct": "expressed in transfected cells; host or cells: HEK293A cells, transient co-transfection with the mitochondria-targeted aequorin vector", "T2 sequence (Q8NE86 51-351)": "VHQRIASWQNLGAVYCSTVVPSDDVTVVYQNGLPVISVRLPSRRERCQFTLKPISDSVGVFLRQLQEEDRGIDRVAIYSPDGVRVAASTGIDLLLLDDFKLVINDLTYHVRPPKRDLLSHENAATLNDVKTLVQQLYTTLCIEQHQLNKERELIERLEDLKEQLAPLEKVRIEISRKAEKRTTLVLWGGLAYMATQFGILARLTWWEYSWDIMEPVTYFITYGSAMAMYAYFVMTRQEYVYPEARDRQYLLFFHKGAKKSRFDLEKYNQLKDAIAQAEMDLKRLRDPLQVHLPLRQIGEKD", "T2 sequence (Q9H4I9 48-107 partner limits assumed)": "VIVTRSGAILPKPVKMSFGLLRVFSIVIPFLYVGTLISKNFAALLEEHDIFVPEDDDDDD", "assay": "MCU-dependent mitochondrial Ca2+ influx in HEK293A cells overexpressing human MCU", "format": "cell-based", "conditions": "pretreatment", "source_text": "as §1, §2, §3"}, "[1]": {"tested_on": "serum-induced cytosolic Ca2+ increase in HEK293A cells", "assay": "Counter assay: serum-induced cytosolic Ca2+ increase in HEK293A cells expressing aequorin in cytosol", "format": "cell-based, human", "conditions": "read-out: concentration used to decrease the serum-induced cytosolic Ca2+ increase by 50%", "protocol": "In the first screening using the cell-based assay, application of 10% fetal bovine serum to the cells triggered a rapid increase of mitochondrial Ca^2+ level (Figure 1a). Pretreatment of the cells with DS16570511 inhibited the serum-induced mitochondrial Ca^2+ influx with an IC50 of 7 μM (Figures 1a and b). In order to eliminate broad channel inhibitors or chemicals affecting the aequorin-based detection system, a counter assay was carried out using HEK293A cells expressing aequorin in cytosol. In the assay, the concentration of DS16570511 used to decrease the serum-induced cytosolic Ca^2+ increase by 50% was ~50 μM.\nFor dynamic measurements of mitochondrial Ca^2+ levels in intact cells, HEK293A cells were stably transfected with pIRES-puro vector expressing mitochondria-targeted aequorin.[20] One day after plating on a 15-cm dish (8×10^6 cells/dish), the cells were harvested and incubated with 2.5 μM coelenterazine h in aequorin assay buffer (200 mM Hanks Balanced Salt Solution, 25 mM HEPES (pH 7.0) and 0.1% bovine serum albumin) for 2 h at room temperature. The cells (8.1×10^4 cells/well) were then treated with DS16570511 for 20 min in a 96-well plate at room temperature. For induction of intracellular Ca^2+, the cells were treated with 10% fetal bovine serum, and luminescence levels were measured by using a Centro LB960 luminometer (Berthold Technologies, Oak Ridge, TN, USA)."}},
  "data": [
    {"molecule": "Cc1onc(-c2c(Cl)cccc2Cl)c1CNc1cccc(C(=O)c2cn(CCCC(=O)O)c3ccccc23)c1", "note": "[DS16570511]", "values": [
      {"measurement": "effect on MICU1-dependent activation of the uniporter", "setting": "MICU1", "value": "blocked by DS16570511 in a dose-dependent manner"},
      {"measurement": "effect on MCU-dependent increment of mitochondrial Ca2+ influx", "setting": "MCU", "value": "blocked"},
      {"measurement": "IC50", "setting": "[1]", "value": "~50", "unit": "µM"}
    ]}
  ]
}
